Measured values from PubChem BioAssay (NCI).
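Five compound concentrations were applied to cells in 96-well plates for 48 hours; endpoints were derived by simple linear interpolation of the resulting dose-response curve. TGI: total growth inhibition.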

Experiments:
Test in all cases: growth of human tumour cells (NCI), 48 h
[1] = system: OVCAR-8 ovarian
[2] = system: A549 NSCLC
[3] = system: ACHN renal
[4] = system: M14 melanoma
[5] = system: SF-268 CNS
[6] = system: OVCAR-4 ovarian
[7] = system: MALME-3M melanoma
[8] = system: MDA-MB-231 breast
[9] = system: HOP-62 NSCLC
[10] = system: HCT-116 colon

CCOC(=O)c1ccc(C(=O)OCC)n1-c1cc2cc(c1)CSCc1cc(cc(-n3c(C(=O)OCC)ccc3C(=O)OCC)c1)CSC2
TGI [1]: > 10 µM
TGI [2]: > 10 µM
TGI [3]: > 10 µM
TGI [4]: > 10 µM
TGI [5]: > 10 µM
TGI [6]: > 10 µM
TGI [7]: > 10 µM
TGI [8]: > 10 µM
TGI [9]: > 10 µM
TGI [10]: > 10 µM

CC1=NC(=O)C(C)(c2ccccc2)N1CCc1ccccc1 (stereo not given)
TGI [1]: > 100 µM
TGI [2]: > 100 µM
TGI [3]: > 100 µM
TGI [4]: > 100 µM
TGI [5]: > 100 µM
TGI [6]: > 100 µM
TGI [7]: > 100 µM
TGI [8]: > 100 µM
TGI [9]: > 100 µM
TGI [10]: > 100 µM

CSc1nc2ccccc2c(=O)n1/N=C1\C(=O)N(CN2CCCCC2)c2ccc(Cl)cc21
TGI [1]: > 100 µM
TGI [2]: > 100 µM
TGI [3]: > 100 µM
TGI [4]: > 100 µM
TGI [5]: > 100 µM
TGI [6]: > 100 µM
TGI [7]: > 100 µM
TGI [8]: > 100 µM
TGI [9]: > 100 µM
TGI [10]: > 100 µM

O=C(O)C1CC2C3CCC2C1C3=O (stereo not given)
TGI [1]: > 100 µM
TGI [2]: > 100 µM
TGI [3]: > 100 µM
TGI [4]: > 100 µM
TGI [5]: > 100 µM
TGI [6]: > 100 µM
TGI [7]: > 100 µM
TGI [8]: > 100 µM
TGI [9]: > 100 µM
TGI [10]: > 100 µM
